Among the test systems are KM12 colon; HL-60(TB) leukemia; K-562 leukemia; SNB-19 CNS; HT29 colon; NCI-H460 lung; SW-620 colon; HCC-2998 colon; SR leukemia; MALME-3M melanoma.
Common to all, as to experiment: growth of human tumour cells (NCI), 48 h

Results on ten compounds are retold here after PubChem BioAssay (NCI).

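Results reflect a 48-hour exposure of cells in 96-well plates to compound at five concentrations. The concentration for 50% growth inhibition is given as GI50. The concentration for full growth arrest is given as TGI.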

With `COc1ccc(-c2nc3sc(-c4ccc(Cl)cc4)cn3n2)cc1`, the GI50 was 12.2 µM with KM12 colon; > 50 µM in the experiment with HL-60(TB) leukemia; 29.4 µM in the experiment on K-562 leukemia; 2.47 µM with SNB-19 CNS; 2.96 µM with HT29 colon; 1.33 µM with NCI-H460 lung. The GI50 with SW-620 colon is 5.51 µM; in the experiment with HCC-2998 colon it was > 50 µM; in the experiment on SR leukemia, 4.53 µM; in the experiment with MALME-3M melanoma it was 2.71 µM. Further, the TGI with KM12 colon is > 50 µM; in the experiment with HL-60(TB) leukemia, > 50 µM; in the experiment with K-562 leukemia it was > 50 µM; in the experiment on SNB-19 CNS it was > 50 µM; in the experiment with HT29 colon it was > 50 µM; with NCI-H460 lung, 4 µM. Besides, the TGI is > 50 µM in the experiment on SW-620 colon, > 50 µM in the experiment with HCC-2998 colon, 26.1 µM in the experiment with SR leukemia and > 50 µM in the experiment on MALME-3M melanoma.
On to `O=C1C=C(NCCNC(=S)Nc2ccccc2)c2nccc3c2c1nc1ccccc13`, for which the GI50 with KM12 colon was 41.2 µM; with HL-60(TB) leukemia, 17.4 µM; in the experiment on K-562 leukemia, 35.1 µM; in the experiment on SNB-19 CNS it was > 100 µM; with HT29 colon it was 44.6 µM; in the experiment on NCI-H460 lung it was 29.4 µM. The GI50 was 32.2 µM in the experiment on SW-620 colon, 17.6 µM with HCC-2998 colon, 2.97 µM in the experiment on SR leukemia and 30.1 µM with MALME-3M melanoma. The TGI with KM12 colon, in the experiment on HL-60(TB) leukemia, in the experiment on K-562 leukemia, in the experiment with SNB-19 CNS, in the experiment with HT29 colon and in the experiment on NCI-H460 lung was > 100 µM in each case. Also, the TGI in the experiment on SW-620 colon, with HCC-2998 colon, with SR leukemia and in the experiment on MALME-3M melanoma was > 100 µM each time.
Regarding `CO/C(=N\N=C\c1cccc(Cl)c1)c1ccncc1`, the TGI with KM12 colon, with HL-60(TB) leukemia, in the experiment with K-562 leukemia, with SNB-19 CNS, in the experiment on HT29 colon and in the experiment on NCI-H460 lung was > 10 µM each time. For the same compound, the TGI in the experiment with SW-620 colon, in the experiment on HCC-2998 colon, in the experiment on SR leukemia and in the experiment on MALME-3M melanoma was > 10 µM throughout.
For the compound `CCCCC1CC(c2cccc([N+](=O)[O-])c2)=NO1` (stereo unspecified), the TGI with KM12 colon, in the experiment with HL-60(TB) leukemia, in the experiment with K-562 leukemia, in the experiment with SNB-19 CNS, in the experiment with HT29 colon and in the experiment on NCI-H460 lung was > 100 µM in each case. For the same compound, the TGI in the experiment with SW-620 colon, in the experiment on HCC-2998 colon, in the experiment with SR leukemia and with MALME-3M melanoma was > 100 µM throughout.
Take `NC1CCCCC1.[O]=[Ge].[O]=[Ge].[O]=[Ge][OH].[O]=[Ge][OH]`: the TGI with KM12 colon, in the experiment on HL-60(TB) leukemia, in the experiment on K-562 leukemia, with SNB-19 CNS, in the experiment on HT29 colon and in the experiment with NCI-H460 lung was > 100 µM each time. The TGI in the experiment on SW-620 colon, with HCC-2998 colon, in the experiment with SR leukemia and in the experiment with MALME-3M melanoma was > 100 µM each time. In addition, in the experiment on SR leukemia, the GI50 is > 100 µM.
Regarding `O=Cc1ccccc1OCCOc1cc(OCCOc2ccccc2C=O)c(OCCOc2ccccc2C=O)cc1OCCOc1ccccc1C=O`, the TGI in the experiment with KM12 colon is > 100 µM; in the experiment on HL-60(TB) leukemia it was > 100 µM; with K-562 leukemia, > 100 µM; in the experiment with SNB-19 CNS, > 82.9 µM; in the experiment with HT29 colon, > 100 µM; in the experiment with NCI-H460 lung it was > 100 µM. Besides, the TGI in the experiment with SW-620 colon, in the experiment on HCC-2998 colon, with SR leukemia and with MALME-3M melanoma was > 100 µM throughout.
With `C=C(CCCCCCCCC)CC(=O)SCCNC(=O)CCNC(=O)C(O)C(C)(C)COP(=O)(O)OP(=O)(O)OCC1OC(n2cnc3c(N)ncnc32)C(O)C1OP(=O)(O)O` (stereo unspecified), the TGI with KM12 colon was > 100 µM; in the experiment on HL-60(TB) leukemia, > 90.9 µM; with K-562 leukemia, > 31.6 µM; in the experiment on SNB-19 CNS it was > 100 µM; in the experiment on HT29 colon, > 100 µM; in the experiment on NCI-H460 lung, > 100 µM. In addition, the TGI in the experiment with SW-620 colon, with HCC-2998 colon, in the experiment on SR leukemia and in the experiment on MALME-3M melanoma was > 100 µM throughout.
Consider `COc1ccc(N2Cc3cnc(Nc4ccccc4)nc3N([C@@H]3CC[C@@H](O)C3)C2=O)cc1`, for which the GI50 with KM12 colon is 3.54 µM; with HL-60(TB) leukemia, 4.45 µM; in the experiment with K-562 leukemia it was 5.67 µM; with SNB-19 CNS, 11.9 µM; in the experiment on HT29 colon, 3.57 µM; in the experiment on NCI-H460 lung, 3.41 µM. Moreover, the GI50 with SW-620 colon is 3.81 µM; with HCC-2998 colon it was 18.8 µM; in the experiment with SR leukemia, 3.12 µM; in the experiment with MALME-3M melanoma it was 6.89 µM. The TGI in the experiment with KM12 colon is > 25 µM; in the experiment on HL-60(TB) leukemia, > 20.7 µM; in the experiment with K-562 leukemia, > 25 µM; in the experiment with SNB-19 CNS it was > 25 µM; with HT29 colon, > 25 µM; with NCI-H460 lung it was > 25 µM. Moreover, the TGI is > 18.2 µM in the experiment with SW-620 colon, > 25 µM with HCC-2998 colon, > 16.6 µM in the experiment with SR leukemia and > 25 µM in the experiment on MALME-3M melanoma.
On to `COC(=O)C(C(=O)C(=O)Nc1ccc(C(F)(F)F)cc1[N+](=O)[O-])c1csc(-n2nc(-c3ccccc3)cc2-c2ccccc2)n1` (stereo unspecified), for which the TGI in the experiment with KM12 colon, in the experiment on HL-60(TB) leukemia, in the experiment on K-562 leukemia, with SNB-19 CNS, with HT29 colon and in the experiment with NCI-H460 lung was > 100 µM in each case. The TGI with SW-620 colon, in the experiment with HCC-2998 colon, in the experiment on SR leukemia and with MALME-3M melanoma was > 100 µM in each case.
Turning to `COc1cc(CCN)c2c(c1OC)SSSSS2`, the GI50 was 1.64 µM in the experiment with KM12 colon; 1.57 µM with HL-60(TB) leukemia; 0.629 µM in the experiment on K-562 leukemia; 2.45 µM in the experiment with SNB-19 CNS; 0.34 µM with HT29 colon; 0.767 µM with NCI-H460 lung. Further, the GI50 is 0.101 µM in the experiment on SW-620 colon, 0.384 µM in the experiment on HCC-2998 colon, 0.113 µM with SR leukemia and 2.08 µM in the experiment on MALME-3M melanoma. The TGI was 3.09 µM with KM12 colon; 5.09 µM in the experiment on HL-60(TB) leukemia; > 100 µM in the experiment on K-562 leukemia; 4.72 µM in the experiment on SNB-19 CNS; 1.39 µM in the experiment with HT29 colon; 2.11 µM in the experiment on NCI-H460 lung. In addition, the TGI was found to be 0.283 µM in the experiment on SW-620 colon, 2.08 µM with HCC-2998 colon, 0.679 µM in the experiment on SR leukemia and 4.09 µM in the experiment with MALME-3M melanoma.
